Experimental data published in patent publication US20070026431A1, “Modulation of MAPK-mediated phosphorylation and/or FBXW8-mediated ubiquitinylation of cyclin D1 in modulation of cellular proliferation” (priority 2005, published 2007).
Read-outs that look alike come from different tables or passages of the source. Peptide text beside a SMILES is read from it. * marks the point of attachment. Cbz = O=C(OCc1ccccc1)*

Columns and labels:
cyclin D1 protein [1] = assay: Western blot of cyclin D1 with or without MG132 during cell cycle progression, NIH 3T3 cells; type: cell-based, mouse
Experimental: HCT 116 and NIH 3T3 cells were treated with the proteasome inhibitor MG132 at each time point during cell cycle progression (FIG. 3, Panel C).

cyclin D1 protein [2] = assay: Western blot of cyclin D1 with or without MG132 during cell cycle progression, WI-38 cells; type: cell-based, human; settings: MG132 2 hours
Experimental: (§1) FIG. 3 illustrates that cyclin D1 is destabilized during S phase through the ubiquitin-proteasome pathway in cancers. Panels A and B: Pulse-chase analysis of cyclin D1 protein in NIH 3T3 (Panel A) and HCT 116 (Panel B) cells. When most of the populations were in G1 phase (9 hrs for NIH3T3 and 6 hrs for HCT 116) or in S phase (21 hrs for NIH3T3 and 15 hrs for HCT 116), cells were released from quiescence and then labeled with 35^S-methionine for 1 hour. Subsequently these cells were chased with cold methionine for the indicated times and then lysed. Cyclin D1 was immunoprecipitated and then analyzed with SDS-PAGE. Autoradiography was performed. Levels of metabolically labeled-cyclin D1 were estimated by quantitative scanning using the Quantity One (Bio-Rad) software and blotted on the graph to determine the half-life of cyclin D1. Panel C: illustrates that the turnover of cyclin D1 protein is mediated by the ubiquitin-proteasome pathway. […] Western blot was performed with cyclin D1 and p-actin antibodies. Panel D: Polyubiquitination of cyclin D1 protein. HCT 116 colon cancer cells were transfected with (lane 1-3) or without (lane 4) ubiquitin cDNA and then synchronized to S phase through the sequential manipulation of serum starvation and stimulation. Cells were treated with (lane 3 and 4) or without (lane 1 and 2) 25 μM MG132 for an hour. […]

[3] = tested on: polyubiquitinated cyclin D1; assay: Polyubiquitination of cyclin D1, IP-immunoblot in HA-ubiquitin transfected S phase HCT 116 cells; type: cell-based, human
Experimental: FIG. 3 illustrates that cyclin D1 is destabilized during S phase through the ubiquitin-proteasome pathway in cancers. Panels A and B: Pulse-chase analysis of cyclin D1 protein in NIH 3T3 (Panel A) and HCT 116 (Panel B) cells. When most of the populations were in G1 phase (9 hrs for NIH3T3 and 6 hrs for HCT 116) or in S phase (21 hrs for NIH3T3 and 15 hrs for HCT 116), cells were released from quiescence and then labeled with 35^S-methionine for 1 hour. Subsequently these cells were chased with cold methionine for the indicated times and then lysed. Cyclin D1 was immunoprecipitated and then analyzed with SDS-PAGE. Autoradiography was performed. Levels of metabolically labeled-cyclin D1 were estimated by quantitative scanning using the Quantity One (Bio-Rad) software and blotted on the graph to determine the half-life of cyclin D1. Panel C: illustrates that the turnover of cyclin D1 protein is mediated by the ubiquitin-proteasome pathway. […]
To confirm that the destabilization of cyclin D1 in the S phase is related to polyubiquitination, HCT 116 colon cancer cells were transfected with (lanes 1-3) or without (lane 4) HA-tagged ubiquitin cDNA and then synchronized to the S phase (FIG. 3, Panel D). […] A group of slower migrating bands was detected by the HA antibody exclusively in the anti-cyclin D1 immunoprecipitates in the presence of ubiquitin (lane 2 and 3). […]

cyclin D1 protein [4] = assay: Western blot of cyclin D1 with or without MG132 during cell cycle progression, HCT 116 cells; type: cell-based, human; settings: MG132 2 hours
Experimental: as §1

MAPK (ERK1/2) = assay: Western blot after 4-HT treatment, ΔB-Raf:ER^TAM NIH 3T3 cells; type: cell-based, mouse; settings: 10 nM 4-HT
Experimental: (§2) Panel B: Western blot analysis. […] Panel C: Western blot analysis after 4-HT treatment. […] A half-life of cyclin D1 protein was calculated.
(§3) In order to investigate whether this was due to accelerated turnover of the cyclin D1 protein, the half-life of endogenous expression of cyclin D1 protein (FIG. 8, Panel E) was assessed.

cyclin D1 protein [5] = assay: Cyclin D1 expression and half-life after 4-HT in ΔB-Raf:ER^TAM NIH 3T3 cells; type: cell-based, mouse
Experimental: as §2, §3

[6] = tested on: cyclin D1 / E3 ligase FBXW8; settings: HCT 116 transfected with FBXW8, cyclin D1 and CDK4; 10 μM U0126 30 minutes
Experimental: Panel D: Immunoprecipitated-immunoblotting analysis. […] Panels D and E: Exponentially growing HCT 116 colon cancer cells were transiently transfected with Flag epitope-tagged FBXW8 DNA plasmid together with HA-tagged cyclin D1 and CDK4 expression vectors. Twenty-four hours later cells were treated with DMSO (−) or 10 μM of U0126 (+) for 30 minutes and then harvested. Cell lysates were immunoprecipitated with either a Flag (FBXW8) antibody or a control IgG and immunoblotted with cyclin D1, pThr286, and Flag (FBXW8) antibodies (left panel). Western blot for input controls (lysate) were provided (right panel).
Immunoprecipitation and Immunoblotting Analysis. […] Following antibodies were used for immunoprecipitation; Flag (M2 Agarose-conjugated, Sigma), cyclin D1 (A-12, Agarose-conjugated, Santa Cruz), CDK4 (H-303 or C-22 Agarose-conjugated, Santa Cruz), CDK6 (C-21, Santa Cruz), FLA (M2 Agarose-conjugated, Sigma), and HA (Y-11 Agarose-conjugated, Santa Cruz). Immunoblotting was performed using antibodies described above.
FBXW8 DNA plasmid together with cyclin D1 and CDK4 expression vectors were transiently transfected in exponentially growing HCT 116 colon cancer cells. After 24 hours, cells were treated with U0126 to inhibit MEK/MAPK signaling for 30 minutes. Subsequently cells were collected and an immunoprecipitated-immunoblotting analysis was performed (FIG. 12, Panels D and E).

[7] = tested on: cyclin D1 protein (Thr286 phosphorylation); assay: Western blot of total cyclin D1 and pThr286 in HCT 116 cells after U0126 or GSK3 inhibitor; type: cell-based, human
Experimental: (§4) FIG. 11 illustrates that ERK/MAPK is identified as the major kinase that is responsible for the stability of cyclin D1 protein. Panels A-F: Pulse-chase analysis of cyclin D1 protein in HCT 116 cells after exposure to the MEK inhibitor U0126 (A-C) or the GSK3 inhibitor BIO (D-F). Exponentially growing HCT 116 cells were treated with either DMSO or 10 μM of U0126 (A-C) for 30 minutes, or DMSO or 5 μM of BIO (D-F) for 24 hours. Panels A and D: Cells were pulse-labeled with ^35S-methionine for 1 hour. Subsequently these cells were chased with cold methionine for the indicated times, and then lysed respectively. Cyclin D1 was immunoprecipitated and then analyzed with SDS-PAGE. Autoradiography was performed. Levels of metabolically labeled-cyclin D1 were estimated by quantitative scanning using the Quantity One (Bio-Rad) software and blotted on the graph to determine the half-life of cyclin D1. Panels B and E: Western blot analysis. The membrane was blotted with a cyclin D1 Thr286 phosphorylation specific (pThr286), total cyclin D1, a phosphorylation specific ERK, and total ERK antibodies (B), or a pThr286, cyclin D1, a GSKα/β phosphorylation specific, and GSK3β antibodies (E). Panels C and F: Cell cycle distributions were shown. Panel G: Western blot analysis following transfection of various forms of HA-tagged cyclin D1 expression vectors in both NIH 3T3 mouse fibroblast (left) and HCT 116 colon cancer (right) cells. In lane 5 and 10, cells were treated with 5 μM of BIO for further 24 hours following transfection of the ΔD CD1 mutant.
(§5) Immunoblotting Analysis. […] SDS-PAGE was described previously (Tetsu and McCormick, 2003).
To determine the contribution of ERK/MAPK to the stability of cyclin D1 in cancer cells, MAPK activity was inhibited with the MEK inhibitor U0126 (Favata et al., 1998. J Bio Chem. 273, 18623-32; Davies et al., 2000. Biochem J. 351, 95-105). Exponentially growing HCT 116 colon cancer cells were treated with U0126 for 30 minutes (FIG. 11, Panels A-C).
In contrast, no effect on phosphorylation status and stability of cyclin D1 protein through inhibition of GSK3α/β ([…], Panels D-F) were detected. […] Cycling HCT 116 colon cancer cells were treated with BIO for 24 hours (FIG. 11, Panels D-F). A phosphorylation specific antibody to GSK3α and β was used to measure their endogenous activities because phosphorylations of GSK3α at Tyr279 and GSK3β at Tyr216 are intramolecular autophosphorylation events in the cells. Thus, phosphorylation status reflects their kinase activities (Cole et al., 2004. Biochem J. 377, 249-55).

MEK/MAPK [8] = assay: Western blot of phosphorylated ERK (pERK) in HCT 116 cells; type: cell-based, human
Experimental: as §4, with “Panel G: Western blot analysis following transfection of various forms of HA-tagged cyclin D1 expression vectors in both NIH 3T3 mouse fibroblast (left) and HCT 116 colon cancer (right) cells. In lane 5 and 10, cells were treated with 5 μM of BIO for further 24 hours following transfection of the ΔD CD1 mutant.” left out

MEK/MAPK [9] = tested on: MEK/MAPK
Experimental: Immunoblot analysis was performed. […] Panels C and D: HA-WT CD1 (D) or Panel E: HA-CD1 T286A ectopically expressing SW480 cells were treated with highly specific small molecule inhibitors for GSK3β CDK4 and MEK. LiCl and BIO, AG12275, and U0126 were used for GSK, CDK4 and MEK/MAPK inhibitions respectively. Twenty-four hours after the treatment, cells were harvested and western-blot analyses were performed with a cyclin D1 and the p-Thr286 cyclin D1 antibodies. The phosphorylated cyclin D1 expression was magnified and normalized to its total (phosphorylated plus non-phosphorylated protein) expression and shown in the graphs in Panel C. Inhibition of the kinase activities by drugs was assessed using phosphorylation-specific antibodies for GSK3α/β, Rb and ERK1/2 on the same membrane respectively. […] HA-WT CD1 SW480 cells were treated with combining U0126 with LiCl.
After 24 hours of treatment with these highly specific small molecule inhibitors, expression levels of cyclin D1 and its phosphorylated form were analyzed (FIG. 5, Panel C). Levels of phosphorylated cyclin D1 were estimated by quantitative scanning with Quantity One (Bio Rad) software and were normalized to levels of total cyclin D1 protein (FIG. 5, Panel C bottom graphs).
Cells were next treated with the MEK inhibitor U0126.

[10] = tested on: cyclin D1 protein (Thr286 phosphorylation); assay: Western blot of cyclin D1 and p-Thr286 cyclin D1 in HA-CD1 SW480 cells treated with kinase inhibitors; type: cell-based, human
Experimental: Immunoblot analysis was performed. […] Asterisks indicate endogenous cyclin D1 expression. Panel B: Western blot analysis with fractionated nuclear proteins. […] Cell-cycle distribution was shown as bar graphs. Nuclear proteins were fractionated at indicated time points. […] Levels of total and phosphorylated cyclin D1 were determined.
as §5
To identify the kinase responsible for cyclin D1 Thr286 phosphorylation, small molecule inhibitors of GSK3β, CDK4, and MEK were used to determine whether they were able to alter the phosphorylation and stability of ectopically expressed WT cyclin D1 protein in cultured cells (FIG. 5, Panels C and D). Ectopically expressed WT cyclin D1 protein was used to assess the stability of cyclin D1 protein. The endogenous expression was not assessed because transcription of cyclin D1 is regulated by the Ras/MAPK signaling. Therefore, endogenous expression of cyclin D1 is unable to be detected following inhibition of MAPK activities through the MEK/MAPK inhibitors or serum starvation (Tetsu et al., 2003. Cancer Cell. 3, 233-45).

cyclin D1 protein [11] = assay: Pulse-chase analysis of cyclin D1 protein in HCT 116 cells; type: cell-based, human; settings: exponentially growing HCT 116; 10 μM U0126 30 minutes
Experimental: FIG. 11 illustrates that ERK/MAPK is identified as the major kinase that is responsible for the stability of cyclin D1 protein. Panels A-F: Pulse-chase analysis of cyclin D1 protein in HCT 116 cells after exposure to the MEK inhibitor U0126 (A-C) or the GSK3 inhibitor BIO (D-F). Exponentially growing HCT 116 cells were treated with either DMSO or 10 μM of U0126 (A-C) for 30 minutes, or DMSO or 5 μM of BIO (D-F) for 24 hours. Panels A and D: Cells were pulse-labeled with ^35S-methionine for 1 hour. Subsequently these cells were chased with cold methionine for the indicated times, and then lysed respectively. Cyclin D1 was immunoprecipitated and then analyzed with SDS-PAGE. Autoradiography was performed. Levels of metabolically labeled-cyclin D1 were estimated by quantitative scanning using the Quantity One (Bio-Rad) software and blotted on the graph to determine the half-life of cyclin D1. […]
FIG. 18 illustrates that knockdown of FBXW8, or its partner CUL1 or CUL7 expression through siRNA stabilizes cyclin D1 expression in HCT 116 colon cancer cells. […] Cyclin D1 was immunoprecipitated and then analyzed with SDS-PAGE. Levels of metabolically labeled-cyclin D1 were estimated by quantitative scanning using the Quantity One software (Bio-Rad) and blotted on the graph to determine the half-life of cyclin D1 (D).
Pulse-Chase Analysis. […] Cyclin D1 was immunoprecipitated and then analyzed with SDS-PAGE. […]

[12] = tested on: HCT 116 colon cancer cells; assay: Flow-cytometric cell cycle analysis, HCT 116 cells; type: cell-based, human; settings: U0126 30 minutes
Experimental: Cell cycle analysis was carried out as described previously (Tetsu et al. (1999) Nature 398: 422-6; Tetsu et al. (2003) Cancer Cell 3: 233-45.

cyclin D1 protein [13] = settings: HA-WT cyclin D1 SW480 cells; U0126 24 hours, then CHX, chased 3 hours
Experimental: FIG. 8 illustrates that MAPK regulates stability and relocalization of cyclin D1 protein. Panels A and B: Half-life analysis of HA-CD1 WT after exposure to U0126. Panel A: Exponentially growing HA-WT cyclin D1 SW480 cells were exposed to U0126 for 24 hours and subsequently treated with CHX and chased for 3 hours. Cells were harvested at different times and protein blot was performed (upper panel). Cyclin D1 expression was quantified and the half-life was calculated respectively. Panel B: Western blot analysis.
Immunoblotting Analysis. […] NE-PER nuclear and cytoplasmic extraction reagents (Pierce) were used for nuclear and cytoplasmic fractionation. […] Western blots were developed by enhanced chemiluminescence (Amersham or Upstate). […] Intensities of bands were quantified using Gel Doc 600 and Quantity One software (BioRad).
Exponentially growing HA-WT cyclin D1 SW480 cells were exposed to U0126 for 24 hours and subsequently treated with CHX and chased for 3 hours. […] Cyclin D1 expression was quantified and the half-life was calculated (FIG. 8, Panel A bottom graph).

GSK3α/β = assay: Phosphorylation-specific blot for GSK3α/β, SW480 cells; type: cell-based, human; settings: 24 hours of treatment
[14] = HCT 116 transfected with FBXW8, cyclin D1 and CDK4, 10 μM U0126 30 minutes
[15] = exponentially growing HCT 116, U0126 30 minutes
[16] = HA-WT CD1 SW480 cells, U0126 24 hours

## CC(C)C[C@@H](C=O)NC(=O)[C@H](CC(C)C)NC(=O)[C@H](CC(C)C)NC(=O)OCc1ccccc1 [MG132] (Cbz-Leu-Leu-Leu-aldehyde)
Cyclin D1 protein [1]
  cyclin D1 protein accumulation, G1 versus S phase: no difference between the G1 and S phase
Cyclin D1 protein [2]
  cyclin D1 protein accumulation, G1 versus S phase: no remarkable different
[3]; 25 μM MG132 for an hour
  reduced mobility (polyubiquitinated cyclin D1) bands: enhanced further
Cyclin D1 protein [4]
  cyclin D1 protein accumulation during G1 phase: no significant accumulation
  cyclin D1 protein accumulation in S phase: accumulated significantly

## 4-hydroxy-tamoxifen [4-HT]
MAPK (ERK1/2)
  MAPK activation: MAPK activation
Cyclin D1 protein [5]; exponentially growing cells, 10 nM 4-HT, then CHX, chased 3 hours
  half-life of cyclin D1 protein (T1/2): 20.6 min
Cyclin D1 protein [5]; serum-stimulated from quiescence in the presence of 4-HT
  cyclin D1 expression in S phase: dramatic reduction

## CCC(=C/[C@H](C)C/C=C/C(C)=C/[C@@H](C)C(=O)[C@@H](C)[C@H](O)[C@@H](C)C/C(C)=C/C(=O)O)/C=C/[C@@H]1OC(=O)C=C[C@@H]1C [Leptomycin B]
[3]; LMB 3 hours, then MG132 for an hour, nuclear fraction
  polyubiquitinated cyclin D1 bands in the nucleus: did not enhance these bands significantly

## N#CC(=C(/N)Sc1ccccc1N)/C(C#N)=C(\N)Sc1ccccc1N [U0126]
[6]
  association of cyclin D1 with the E3 ligase FBXW8: significant decrease
[7]; [14]
  phosphorylation status of cyclin D1 at Thr286 (pThr286): significantly inhibited
[7]; [15]
  level of total cyclin D1: not changed
  phosphorylation of cyclin D1 at Thr286 (pThr286): dramatic reduction
MEK/MAPK [8]; [14]
  MAPK activities (pERK): significantly inhibited
MEK/MAPK [8]; [15]
  phosphorylated form of ERK (pERK): significantly depleted
MEK/MAPK [9]; HA-WT cyclin D1 SW480 cells, U0126 24 hours (FIG. 8 Panel B)
  MAPK activity: completely inhibited
MEK/MAPK [9]; SW480 cells, 24 hours after exposure
  phosphorylated ERK: disappeared
[10]; HA-CD1 T286A SW480 cells, U0126
  ectopic expression of cyclin D1 T286A protein: did not accumulate
[10]; [16]
  cyclin D1 expression (ectopic HA-WT): dramatic induction
  ratio of phosphorylated cyclin D1 at Thr286 to total cyclin D1: significant reduction
Cyclin D1 protein [11]
  half-life of cyclin D1 protein: 54.6 min
[12]
  cell cycle profile: without affecting
Cyclin D1 protein [13]
  half-life of cyclin D1 protein (T1/2): 60.3 min

## [Cl-].[Li+] [LiCl]
GSK3α/β
  phosphorylated forms of GSK3α/β: disappeared
[10]; HA-WT CD1 SW480 cells, 24 hours of treatment
  total cyclin D1 expression and its phosphorylated protein: no significant difference
[10]; HA-WT cyclin D1 SW480 cells, U0126 combined with LiCl
  effect of adding LiCl to U0126 on cyclin D1: little enhancement
